Patent US6190848A, “Color photographic element containing ballasted triazole derivative and inhibitor releasing coupler” (priority 1999, dated 2001)

Assay: Single layer film element contrast (gamma) reduction by DI(A)R couplers, KODAK FLEXICOLOR C-41
Settings: DIR tested at 0.055 mmol/m^2, relative to non-inhibitor containing check
Excerpt: The mild inhibitor fragments that are used in this invention are defined as those that cause less than a 45% gamma reduction, or more preferably less than a 40% gamma reduction, relative to a non-inhibitor containing check when coated as the following single layer film element on a cellulose triacetate film support (coverages are in g/m^2):
Overcoat Gelatin at 2.79 and 0.02 bis-vinylsulfonemethylether
Imaging Layer Gelatin at 2.79
Magenta Image Coupler M-1 (dispersed at 80% by
weight in tricresyl phosphate and 20% by weight
N,N-dibutyl-2-butoxy-5-t-octylaniline) at 0.692
DIR being tested at 0.055 mmol/m^2 ( dispersed in twice
its weight in N,N-dibutyllauramide)
Green sensitized AgBrI at 1.08
Samples of each element were given a stepped exposure and processed in the KODAK FLEXICOLOR™ (C-41) process as described in British Journal of Photography Annual, 1988, pp 196-198. Contrast of the elements was determined using the maximum slope between any two density points.

Row | SMILES | % Contrast Reduction
1 | CCCCCCCCCCCCCCOc1ccccc1NC(=O)c1cc(Sc2nnnn2-c2ccccc2)c2ccccc2c1O [CDIR-6] | -75.4%
2 | CCCCCCCCCCCCCCOc1ccccc1NC(=O)c1cc(Oc2ccc(CSc3nnnn3-c3ccccc3)cc2[N+](=O)[O-])c2ccccc2c1O [CDIR-4] | -77.1%
3 | CCCCCCCCCCCCCCCCS(=O)(=O)Nc1cc(CSc2nnnn2CC(=O)OCCC)ccc1Oc1cc(C(N)=O)c(O)c2ccccc12 [IDIR-1] | -34.5%
4 | CCCCCCCCCCCCCCOc1ccccc1NC(=O)c1cc(Oc2ccc(CSc3nnnn3-c3ccccc3)cc2[N+](=O)[O-])c2ccccc2c1O [CDIR-5] | -70.5%
5 | CCCCCCCCCCC(Oc1ccc(S(=O)(=O)c2ccc(O)cc2)cc1)C(=O)Nc1ccc(N2N=C(C)C(n3nc(C)c(C(=O)OCCCCCC)n3)C2=O)cc1 (stereo not shown) [CDIR-9] | -50.1%
6 | CCCCCCCCCCCCOC(=O)C(C)OC(=O)c1ccc(Cl)c(NC(=O)C(C(=O)Nc2cc(C(=O)OC(C)C(=O)OCCCCCCCCCCCC)ccc2Cl)n2nnc3cc(Cl)c(Cl)cc32)c1 (stereo not shown) [IDIR-7] | -20.0%
7 | CCCCCCCCCCCCCCCCS(=O)(=O)Nc1ccc(Cl)c(NC(=O)C(C(=O)C(C)(C)C)n2nc(C)c(C(=O)OCCCCCC)n2)c1 (stereo not shown) [CDIR-10] | -53.8%
8 | CCCCCCOC(=O)c1nn(C2C(=O)N(c3ccc(NC(=O)C(CC)Oc4ccc(C(C)(C)CC)cc4C(C)(C)CC)cc3)N=C2C)nc1C (stereo not shown) [CDIR-8] | -49.2%
9 | CCCCCCCCCCCCCCOc1ccccc1NC(=O)c1cc(Oc2ccc([N+](=O)[O-])cc2CN(C(=O)Sc2nnnn2-c2ccccc2)C(C)C)c2ccccc2c1O [CDIR-3] | -75.7%
10 | CCCCCCCCCCCCCCCCS(=O)(=O)Nc1ccc(Cl)c(NC(=O)C(Oc2ccc([N+](=O)[O-])cc2CN(CC)C(=O)Sc2nnnn2CC(=O)OCCC)C(=O)C(C)(C)C)c1 (stereo not shown) [IDIR-2] | -25.3%
11 | CCCCCCCCCCCCCCOc1ccccc1NC(=O)c1cc(Sc2nnnn2CC)c2ccccc2c1O [IDIR-8] | -2.4%
12 | CCCCCCCCCCCCCCCCS(=O)(=O)Nc1ccc(Cl)c(NC(=O)C(C(=O)C(C)(C)C)n2ncc(SCC(=O)OCCCCCC)n2)c1 (stereo not shown) [CDIR-11] | -58.6%
13 | CCCCCCCCCCCCCCCCS(=O)(=O)Nc1ccc(Cl)c(NC(=O)C(Oc2ccc([N+](=O)[O-])cc2CN(CC)C(=O)Sc2nnnn2-c2ccccc2)C(=O)C(C)(C)C)c1 (stereo not shown) [CDIR-7] | -63.9%
14 | CCC(Oc1ccc(C(C)(C)CC)cc1C(C)(C)CC)C(=O)Nc1ccc(N2N=C(N3CCCC3)C(Sc3nnnn3-c3ccccc3)C2=O)cc1 (stereo not shown) [CDIR-2] | -67.1%
15 | CCCCCCCCCCCCCCOc1ccccc1NC(=O)c1cc(Oc2ccc(CSc3nnnn3Cc3ccc(OC)cc3)cc2[N+](=O)[O-])c2ccccc2c1O [CDIR-1] | -55.4%
16 | CCCCCCCCCCCCOc1ccc(C)cc1NC(=O)c1cc(Oc2ccc(CSc3nnnn3CC(=O)OCCC)cc2[N+](=O)[O-])c2ccccc2c1O [IDIR-3] | -24.5%
17 | CCCOC(=O)Cn1nnnc1SC1C(=O)N(c2ccc(NC(=O)C(CC)Oc3ccc(C(C)(C)CC)cc3C(C)(C)CC)cc2)N=C1N1CCCC1 (stereo not shown) [IDIR-4] | -22.6%

Assay: Bilayer photographic element: interimage (Cg/Cb+g) and relative green sensitivity
Settings: Table II, IDIR-2 in blue layer; IEM or CIEM at 7.2×10^-3 mmol/m^2
Description: Bilayer photographic elements were prepared by coating the following layers on a cellulose triacetate film support (coverages are in g/m^2). Unless otherwise noted, all comparative and inventive compounds were dispersed in twice their own weight of N,N-dibutyllauramide:
Layer 1 (Antihalation Layer): black colloidal elemental silver at 0.34 and gelatin at2.41.
Layer 2 (Receiver Layer): gelatin at 2.79, CDIR-2 at 0.03, coupler M-1 (dispersed as described previously) added at 0.045, comparison material (CIEM) or IEM added at 7.2×10^-3 mmol/m^2 (this corresponds to 1.67 mmol per mole silver as AgBr or 0.96 mmol per mole of silver) dispersed in twice its own weight of N,N-dibutyllauramide and 0.81 green sensitized AgIBr tabular emulsion.
Layer 3 (Interlayer): gelatin at 0.64, ILS-1 at 0.11 and FD-1 at 0.11.
Layer 4 (Causer Layer): gelatin at 2.79, coupler Y-1 at 0.91, 0.79 blue sensitized AgIBr tabular emulsion and the DIR at 0.11 mmol/m^2.
Layer 5 (Overcoat): gelatin at 2.79 and 0.02 bis-vinylsulfonemethylether.
Samples of each element were given a stepped exposure of either green light only or blue and green light combined and processed in the KODAK FLEXICOLOR (C-41) process as described in British Journal of Photography Annual, 1988, pp196-198. Contrast of the elements was determined using the maximum slope between any two density points. In this test, the ratio of the contrast of the green only exposure to the contrast of the green of a blue and green exposure (Cg /Cb+g) is a measure of the interimage. A higher ratio means more inhibition originating from the blue and affecting the green record.
Another set of bilayer experiments were generated in a similar manner to show the effect of IEM laydown (as mmol per mol silver) and DIR variations.

Row | SMILES | Cg /Cb+g (interimage ratio)
18 | CCCCC(CC)CNC(=O)c1ccc2[nH]nnc2c1 (stereo not shown) [CIEM-2] | 1.26
19 | CCCCCCCCCCC(Oc1ccc(S(=O)(=O)c2ccc(O)cc2)cc1)C(=O)Nc1ccc2[nH]nnc2c1 (stereo not shown) [IEM-D] | 1.49
20 | CCCCCCCCCCCCSc1nc2ccccc2[nH]1 [CIEM-16] | 1.27
21 | O=S(=O)(NCCc1ccccc1)c1ccc2[nH]nnc2c1 [CIEM-6] | 1.24
22 | CCC(C)(C)c1ccc(OCCCCC(=O)Nc2ccc3c(c2)nnn3C)c(C(C)(C)CC)c1 [CIEM-14] | 1.31
23 | CCCCCCCCCCOC(=O)CSc1nnc[nH]1 [CIEM-8] | 1.22
24 | CCCCc1ccc(NC(=O)c2ccc3[nH]nnc3c2)cc1 [CIEM-11] | 1.26
25 | CCC(C)(C)c1ccc(OCCCCNC(=O)CSc2nc3ccccc3[nH]2)c(C(C)(C)CC)c1 [CIEM-17] | 1.23
26 | CCCCCCCCCC(=O)Nc1ccc2[nH]nnc2c1 [IEM-B] | 1.39
27 | CCCCCCCC(=O)Nc1ccc2[nH]nnc2c1 [CIEM-1] | 1.25
28 | CCCCCCCCc1nc2ccccc2[nH]1 [CIEM-5] | 1.19
29 | O=C(Oc1ccccc1)c1ccc2[nH]nnc2c1 [CIEM-12] | 1.24
30 | CCCCCCSCCOC(=O)c1nc[nH]n1 [CIEM-4] | 1.19
31 | CCCCCCCCCCCC(=O)Nc1ccc2[nH]nnc2c1 [IEM-C] | 1.64
32 | O=C(Nc1cccc(Oc2ccccc2)c1)c1ccc2[nH]nnc2c1 [CIEM-9] | 1.30
33 | CCCSCCCOC(=O)c1ccc2[nH]nnc2c1 [CIEM-7] | 1.26
34 | CCCCCCCCCOC(=O)c1nc[nH]n1 [CIEM-3] | 1.23
35 | CCCCCCCCCCCCCCCc1cccc(OCCCCNC(=O)c2ccc3[nH]nnc3c2)c1 [CIEM-15] | 1.26
36 | CCC(C)(C)c1ccc(OCCCCC(=O)Nc2ccc3c(c2)nnn3C(=O)N2CCOCC2)c(C(C)(C)CC)c1 [CIEM-13] | 1.30
37 | O=C(c1ccc2[nH]nnc2c1)N1CCCc2ccccc21 [CIEM-10] | 1.18
38 | CCCCCCCCCCCCSc1nc[nH]n1 [IEM-H] | 1.44

Same assay, conditions: bilayer, --N--H group removed

Row | SMILES | interimage effect
39 | CCC(C)(C)c1ccc(OCCCCC(=O)Nc2ccc3c(c2)nnn3C)c(C(C)(C)CC)c1 [CIEM-14] | the effect is insufficient
40 | CCC(C)(C)c1ccc(OCCCCC(=O)Nc2ccc3c(c2)nnn3C(=O)N2CCOCC2)c(C(C)(C)CC)c1 [CIEM-13] | the effect is insufficient
